The values that follow come from patent US7371739B2, “Aryl fructose-1,6-bisphosphatase inhibitors” (Metabasis Therapeutics, Inc., priority 2000, dated 2008).

A word on the IC50: it is the point on the concentration scale where inhibition reaches its midpoint.

The target of the first data set is T1, rat liver FBPase (Rattus norvegicus, UniProt P19112).
T1 construct: made in house; host or cells: E. coli BL21
T1 sequence (P19112 2-363 limits assumed): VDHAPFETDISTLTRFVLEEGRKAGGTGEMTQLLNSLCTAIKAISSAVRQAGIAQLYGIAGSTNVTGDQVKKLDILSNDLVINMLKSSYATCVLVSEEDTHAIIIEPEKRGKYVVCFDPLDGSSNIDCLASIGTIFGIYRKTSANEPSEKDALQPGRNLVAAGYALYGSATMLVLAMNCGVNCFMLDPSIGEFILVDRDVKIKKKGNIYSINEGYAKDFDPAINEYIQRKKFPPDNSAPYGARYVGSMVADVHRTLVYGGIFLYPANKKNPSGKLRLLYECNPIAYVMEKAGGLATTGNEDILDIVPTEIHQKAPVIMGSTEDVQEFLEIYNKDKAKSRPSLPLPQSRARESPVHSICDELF
Kind of data set: Inhibition of Rat Liver FBPase. It is filed as biochemical. To be noted: assay identical to human liver FBPase; read-out: IC50 for AMP, rat liver FBPase. Here is the method:
Recombinant FBPase is purified as described (El-Maghrabi, M. R., and Pilkis, S. J. (1991) Biochem. Biophys. Res. Commun. 176, 137-144) The enzyme assay is identical to that described above for human liver FBPase. The IC50 for AMP is 20 μM.
With `Nc1ncnc2c1ncn2[C@@H]1O[C@H](COP(=O)(O)O)[C@@H](O)[C@H]1O` [AMP, reference compound], the half-inhibitory concentration (IC50) amounted to 20 µM.

A further data set concerns human liver microsomes (P450 isozymes CYP3A4, CYP1A2, CYP2C9). Briefly: Identification of the P450 Isozyme Involved in the Activation. The format is in vitro ADME. To be noted: 0-100 μM P450 isozyme inhibitor. How it is done: Prodrugs are evaluated for human microsome-catalyzed conversion to parent compound in the absence and presence of specific inhibitors of three major P450 isozymes: ketoconazole (CYP3A4), furafylline (CYP1A2), and sulfaphenazole (CYP2C9).
Methods: Reaction (0.5 ml@37° C.) consist of 0.2 M KH2PO4, 13 mM glucose-6-phosphate, 2.2 mM NADP^+, 1 unit of glucose-6-phosphate dehydrogenase, 0-2.5 mg/ml human microsomal protein (In Vitro Technologies, In.), […], and 0-100 μM P450 isozyme inhibitor. Reactions are stopped by addition of methanol to a concentration of 60%, filtered ([…]), and lyophilized. Samples are resuspended in HPLC buffer (10 mM phosphate pH 5.5, 2.5 mM octyl-triethylammonium), loaded onto a YMC C8 HPLC column (250×4.6 mm), and eluted with a methanol gradient to 80%. Formuation of parent drug is confirmed by co-elution with an authentic parent drug standard.
Results: Prodrug is converted readily to parent drug in human liver microsomes.
Regarding `Cc1nc2c([nH]1)c(=O)n(C)c(=O)n2Cc1ccco1` [fusafylline], the “inhibition of formation of parent drug from prodrug by P450 isozyme inhibitor” value (from here on “inhibition of formation of parent drug”) is “no significant inhibition”.

Take `Nc1ccc(S(=O)(=O)Nc2ccnn2-c2ccccc2)cc1` [sulfaphenazole]: the “inhibition of formation of parent drug” value is on record as “no significant inhibition”.

For the compound `CC(=O)N1CCN(c2ccc(OCC3COC(Cn4ccnc4)(c4ccc(Cl)cc4Cl)O3)cc2)CC1` (stereo not drawn) [Ketoconazole], the “inhibition of formation of parent drug” value is listed as “inhibit the formation of parent drugs in a dose-dependent fashion”.

The next data set deals with T2, human liver FBPase (Homo sapiens, UniProt P09467).
T2 sequence (P09467 2-338 limits assumed): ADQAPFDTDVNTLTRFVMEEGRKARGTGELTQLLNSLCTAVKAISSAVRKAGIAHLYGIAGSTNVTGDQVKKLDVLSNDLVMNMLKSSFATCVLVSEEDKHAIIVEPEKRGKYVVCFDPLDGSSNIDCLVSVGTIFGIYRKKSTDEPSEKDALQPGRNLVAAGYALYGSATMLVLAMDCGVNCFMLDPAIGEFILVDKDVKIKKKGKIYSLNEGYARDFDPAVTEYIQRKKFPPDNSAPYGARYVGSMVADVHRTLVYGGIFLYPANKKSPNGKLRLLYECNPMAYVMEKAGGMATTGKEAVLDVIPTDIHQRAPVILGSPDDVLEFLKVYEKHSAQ
Kind of data set: Inhibition of Human Liver FBPase.
Conditions: not given
As to `COc1ccc(CNc2ccccc2)cc1-c1ccc(P(=O)(O)O)o1` [Compound 4.46], the IC50 came to 3 µM.

In turn, `COc1ccc(CNc2ccc(N)cc2)cc1-c1ccc(P(=O)(O)O)o1` [Compound 4.49] showed a half-inhibitory concentration (IC50) of 0.32 µM.

The compound `O=P(O)(O)C#Cc1ccccc1` [Compound 16.01, 1-Phosphono-2-phenylacetylene] returned a half-inhibitory concentration (IC50) of 89 µM.

As for `COc1ccc(CN(C(C)=O)c2ccc(N)cc2)cc1-c1ccc(P(=O)(O)O)o1` [Compound 4.51], the 50% inhibitory concentration (IC50) amounted to 12 µM.

In turn, `O=C(NCP(=O)(O)O)c1ccc(Br)o1` [Compound 8.01, N-(Phosphonomethyl)-5-bromofuran-2-carboxamide] came in with an IC50 of 4 µM.

Consider `COc1ccc(CNc2ccc(NC(C)=O)cc2)cc1-c1ccc(P(=O)(O)O)o1` [Compound 4.50], for which it took 6.5 µM to reach half-maximal inhibition (IC50).

Take `O=C(OCP(=O)(O)O)c1ccc(Br)o1` [Compound 11.02]: the midpoint of inhibition, the IC50, lay at 6.4 µM.

`O=[N+]([O-])c1cc(COCP(=O)(O)O)cc([N+](=O)[O-])c1` [Compound 13.02]: the IC50 was 9 µM.

Consider `COc1c(Br)cccc1C(=O)OCP(=O)(O)O` [Compound 12.01, Phosphonomethyl 3-Bromo-2-methoxybenzoate], for which the 50% inhibitory concentration (IC50) was 4.2 µM.

For `O=P(O)(O)c1ccc(-c2ccc(Cl)cc2Cl)o1` [Compound 2.02], inhibition was half-maximal at 3 µM (IC50).

Turning to `O=P(O)(O)c1ccc(-c2ccc(F)cc2)o1` [Compound 2.01, 5-(4-Fluorophenyl)-2-furanphosphonic Acid], half-maximal inhibition (IC50) required 2.2 µM.

`Nc1cc(-c2ccc(P(=O)(O)O)o2)ccc1Br` [Compound 3.01, 5-(4-Bromo-3-aminophenyl)-2-furanphosphonic Acid]: the concentration for half-maximal inhibition (IC50) came to 5.5 µM.

For the compound `COc1cc(Cl)ccc1C(=O)OCP(=O)(O)O` [Compound 11.01, Phosphonomethyl 4-Chloro-2-methoxybenzoate], the 50% inhibitory concentration (IC50) stood at 2.8 µM.

As to `O=C(NCP(=O)(O)O)c1cc([N+](=O)[O-])cc([N+](=O)[O-])c1` [Compound 8.14], the IC50 is 4 µM.

As for `COc1ccc(CNc2ccc(O)cc2)cc1-c1ccc(P(=O)(O)O)o1` [Compound 4.48], the concentration for half-maximal inhibition (IC50) was determined as 0.14 µM.

Regarding `Nc1c(-c2ccc(P(=O)(O)O)o2)cc([N+](=O)[O-])cc1[N+](=O)[O-]` [Compound 1.02], the IC50 was 1.8 µM.

With `COc1cc(COCP(=O)(O)O)ccc1Br` [Compound 13.01, 4-Bromo-3-methoxyphenylmethoxymethylphosphonic acid], the IC50 was found to be 11 µM.

`COc1ccc(Cl)cc1-c1ccc(P(=O)(O)O)o1` [Compound 1.03] returned an IC50 of 0.5 µM.

Regarding `O=[N+]([O-])c1cc(-c2ccc(P(=O)(O)O)o2)cc([N+](=O)[O-])c1` [Compound 1.01, 5-(3,5-Dinitrophenyl)-2-furanphosphonic Acid], the IC50 was 0.31 µM.

Still in this data set, the particulars now being: read-out: IC50 for AMP, human liver FBPase; text value for reference AMP.
`Nc1ncnc2c1ncn2[C@@H]1O[C@H](COP(=O)(O)O)[C@@H](O)[C@H]1O` [AMP, reference compound]: the half-inhibitory concentration (IC50) was 1 µM.
